From PMC9228872, “Repositioning of Quinazolinedione-Based Compounds on Soluble Epoxide Hydrolase (sEH) through 3D Structure-Based Pharmacophore Model-Driven Investigation” (Molecules, 2022)

Experiments:
[1] = biological target: T1, soluble epoxide hydrolase (sEH) (Homo sapiens, UniProt P34913); experiment: cell-free fluorescence assay with PHOME substrate, concentration-response; type: biochemical
T1 construct: gene EPHX2; human recombinant sEH; C-terminal hydrolase domain activity measured
T1 sequence (P34913 1-555): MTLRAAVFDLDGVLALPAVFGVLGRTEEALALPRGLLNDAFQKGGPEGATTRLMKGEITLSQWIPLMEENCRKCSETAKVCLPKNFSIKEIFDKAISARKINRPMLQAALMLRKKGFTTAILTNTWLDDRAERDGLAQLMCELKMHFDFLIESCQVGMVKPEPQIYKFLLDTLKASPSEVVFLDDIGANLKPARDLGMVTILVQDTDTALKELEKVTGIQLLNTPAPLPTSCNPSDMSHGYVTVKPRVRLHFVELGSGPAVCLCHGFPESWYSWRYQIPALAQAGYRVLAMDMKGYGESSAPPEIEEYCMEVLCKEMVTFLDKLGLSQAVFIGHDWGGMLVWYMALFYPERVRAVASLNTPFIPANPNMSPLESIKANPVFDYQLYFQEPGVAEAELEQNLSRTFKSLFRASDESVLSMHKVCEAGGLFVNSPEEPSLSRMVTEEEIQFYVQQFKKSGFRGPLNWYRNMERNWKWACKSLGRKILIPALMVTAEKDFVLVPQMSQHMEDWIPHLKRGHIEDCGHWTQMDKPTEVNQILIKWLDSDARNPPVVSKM

[2] = biological target: T1, soluble epoxide hydrolase (sEH); experiment: cell-free fluorescence assay with PHOME substrate, single concentration […]; type: biochemical; settings: read-out: sEH Residual Activity (%)

Row | IC50 [1] [µM] | SMILES | remaining activity at 10 µM [2] [%]
1 | 8.8 ± 1.5 | O=C(CCCCn1c(=O)[nH]c2ccccc2c1=O)Nc1ccc2c(c1)OCCO2 [compound 3, N-(2,3-dihydrobenzo[b][1,4]dioxin-6-yl)-5-(2,4-dioxo-1,2dihydroquinazolin-3(4H)yl)pentanamide] | –
2 | 4.5 ± 1 | O=C(CCCCCn1c(=O)[nH]c2ccccc2c1=O)Nc1ccc2c(c1)OCCO2 [compound 4, N-(2,3-dihydrobenzo[b][1,4]dioxin-6-yl)-6-(2,4-dioxo-1,2-dihydroquinazolin-3(4H)-yl)hexanamide] | –
3 | – | O=C(CCCCCCn1c(=O)[nH]c2ccccc2c1=O)Nc1cncc(Br)c1 [compound 6, N-(5-bromopyridin-3-yl)-7-(2,4-dioxo-1,2-dihydroquinazolin-3(4H)-yl)heptanamide] | 48.6 ± 3.8
4 | – | O=C(CCCCCn1c(=O)[nH]c2ccccc2c1=O)Nc1ccc(I)nc1 [compound 7, 6-(2,4-dioxo-1,2-dihydroquinazolin-3(4H)-yl)-N-(6-iodopyridin-3-yl)hexanamide] | 67.2 ± 4.4
5 | – | O=C(CCCCCn1c(=O)[nH]c2ccccc2c1=O)Nc1ccc2ncsc2c1 [compound 8, N-(benzo[d]thiazol-6-yl)-6-(2,4-dioxo-1,2-dihydroquinazolin-3(4H)-yl)hexanamide] | 51.7 ± 3.3
